Laboratory results from ChEMBL document CHEMBL3045446, “In vitro antimicrobial and antimycobacterial activity of some chalcones and their derivatives” (2013).
Values after ≈ are worked out from the molar mass of the structure shown.

What was measured:
Format in all cases: functional
[1] = system: Mycobacterium tuberculosis; experiment: Antituberculosis activity against Mycobacterium tuberculosis H37Rv assessed as growth inhibition after 12 to 28 days by L-J MIC method; conditions: for MIC: Mycobacterium tuberculosis, H37Rv
Candida albicans [2] = experiment: Antimicrobial activity against Candida albicans MTCC 183 assessed as growth inhibition after 48 hr by agar streak dilution method; conditions: MTCC 183, 48 h
Aspergillus clavatus [3] = experiment: Antimicrobial activity against Aspergillus clavatus MTCC 1323 assessed as growth inhibition after 48 hr by agar streak dilution method; conditions: MTCC 1323, 48 h
Aspergillus fumigatus [4] = experiment: Antimicrobial activity against Aspergillus fumigatus MTCC 343 assessed as growth inhibition after 48 hr by agar streak dilution method; conditions: MTCC 343, 48 h
Aspergillus niger [5] = experiment: Antimicrobial activity against Aspergillus niger MTCC 282 assessed as growth inhibition after 48 hr by agar streak dilution method; conditions: MTCC 282, 48 h
Shigella flexneri [6] = experiment: Antimicrobial activity against Shigella flexneri MTCC1457 assessed as growth inhibition after 24 hr by agar streak dilution method; conditions: MTCC1457, 24 h
Proteus vulgaris [7] = experiment: Antimicrobial activity against Proteus vulgaris MTCC 1771 assessed as growth inhibition after 24 hr by agar streak dilution method; conditions: MTCC 1771, 24 h
Salmonella typhi [8] = experiment: Antimicrobial activity against Salmonella enterica subsp. enterica serovar Typhi MTCC 733 assessed as growth inhibition after 24 hr by agar streak dilution method; conditions: MTCC 733, 24 h
Klebsiella pneumoniae [9] = experiment: Antimicrobial activity against Klebsiella pneumoniae MTCC 109 assessed as growth inhibition after 24 hr by agar streak dilution method; conditions: MTCC 109, 24 h
Pseudomonas aeruginosa [10] = experiment: Antimicrobial activity against Pseudomonas aeruginosa MTCC 741 assessed as growth inhibition after 24 hr by agar streak dilution method; conditions: MTCC 741, 24 h
Escherichia coli [11] = experiment: Antimicrobial activity against Escherichia coli MTCC 739 assessed as growth inhibition after 24 hr by agar streak dilution method; conditions: MTCC 739, 24 h
Bacillus cereus [12] = experiment: Antimicrobial activity against Bacillus cereus MTCC 430 assessed as growth inhibition after 24 hr by agar streak dilution method; conditions: MTCC 430, 24 h
Staphylococcus aureus [13] = experiment: Antimicrobial activity against Staphylococcus aureus MTCC 96 assessed as growth inhibition after 24 hr by agar streak dilution method; conditions: MTCC 96, 24 h
Candida albicans [14] = experiment: Antimicrobial activity against Candida albicans MTCC 183 assessed as diameter of growth inhibition zone after 48 hr; note: test concentration or dose not given here
Aspergillus clavatus [15] = experiment: Antimicrobial activity against Aspergillus clavatus MTCC 1323 assessed as diameter of growth inhibition zone after 48 hr; note: test concentration or dose not given here
Aspergillus fumigatus [16] = experiment: Antimicrobial activity against Aspergillus fumigatus MTCC 343 assessed as diameter of growth inhibition zone after 48 hr; note: test concentration or dose not given here
Aspergillus niger [17] = experiment: Antimicrobial activity against Aspergillus niger MTCC 282 assessed as diameter of growth inhibition zone after 48 hr; note: test concentration or dose not given here
Shigella flexneri [18] = experiment: Antimicrobial activity against Shigella flexneri MTCC1457 assessed as diameter of growth inhibition zone after 24 hr
Proteus vulgaris [19] = experiment: Antimicrobial activity against Proteus vulgaris MTCC 1771 assessed as diameter of growth inhibition zone after 24 hr
Salmonella typhi [20] = experiment: Antimicrobial activity against Salmonella enterica subsp. enterica serovar Typhi MTCC 733 assessed as diameter of growth inhibition zone after 24 hr
Klebsiella pneumoniae [21] = experiment: Antimicrobial activity against Klebsiella pneumoniae MTCC 109 assessed as diameter of growth inhibition zone after 24 hr; note: test concentration or dose not given here
Pseudomonas aeruginosa [22] = experiment: Antimicrobial activity against Pseudomonas aeruginosa MTCC 741 assessed as diameter of growth inhibition zone after 24 hr
Escherichia coli [23] = experiment: Antimicrobial activity against Escherichia coli MTCC 739 assessed as diameter of growth inhibition zone after 24 hr; note: test concentration or dose not given here
Bacillus cereus [24] = experiment: Antimicrobial activity against Bacillus cereus MTCC 430 assessed as diameter of growth inhibition zone after 24 hr; note: test concentration or dose not given here
Staphylococcus aureus [25] = experiment: Antimicrobial activity against Staphylococcus aureus MTCC 96 assessed as diameter of growth inhibition zone after 24 hr; note: test concentration or dose not given here

Row | SMILES | growth inhibition (GI) [1] | MIC [1] | MIC (Candida albicans [2]) | MIC (Aspergillus clavatus [3]) | MIC (Aspergillus fumigatus [4]) | MIC (Aspergillus niger [5]) | MIC (Shigella flexneri [6]) | MIC (Proteus vulgaris [7]) | MIC (Salmonella typhi [8]) | MIC (Klebsiella pneumoniae [9]) | MIC (Pseudomonas aeruginosa [10]) | MIC (Escherichia coli [11]) | MIC (Bacillus cereus [12]) | MIC (Staphylococcus aureus [13]) | diameter of the inhibition zone (DIZ) (Candida albicans [14]) | diameter of the inhibition zone (DIZ) (Aspergillus clavatus [15]) | diameter of the inhibition zone (DIZ) (Aspergillus fumigatus [16]) | diameter of the inhibition zone (DIZ) (Aspergillus niger [17]) | diameter of the inhibition zone (DIZ) (Shigella flexneri [18]) | diameter of the inhibition zone (DIZ) (Proteus vulgaris [19]) | further results
1 | N#Cc1c(-c2ccc([N+](=O)[O-])cc2)cc(-c2ccc(Nc3cc(=O)oc4ccccc34)cc2)nc1N | 96% | 250 µg/mL (≈ 526 µM) | 12.5 µg/mL (≈ 26.3 µM) | 25 µg/mL (≈ 52.6 µM) | 25 µg/mL (≈ 52.6 µM) | 25 µg/mL (≈ 52.6 µM) | 50 µg/mL (≈ 105 µM) | 50 µg/mL (≈ 105 µM) | 12.5 µg/mL (≈ 26.3 µM) | 25 µg/mL (≈ 52.6 µM) | 50 µg/mL (≈ 105 µM) | 25 µg/mL (≈ 52.6 µM) | 25 µg/mL (≈ 52.6 µM) | 50 µg/mL (≈ 105 µM) | 23 mm | 22 mm | 20 mm | 23 mm | 20 mm | 19 mm | diameter of the inhibition zone (DIZ) (Salmonella typhi [20]): 23 mm; diameter of the inhibition zone (DIZ) (Klebsiella pneumoniae [21]): 19 mm; diameter of the inhibition zone (DIZ) (Pseudomonas aeruginosa [22]): 20 mm; diameter of the inhibition zone (DIZ) (Escherichia coli [23]): 22 mm; diameter of the inhibition zone (DIZ) (Bacillus cereus [24]): 22 mm; diameter of the inhibition zone (DIZ) (Staphylococcus aureus [25]): 17 mm
2 | Nc1nc(-c2ccccc2)cc(-c2ccc(Nc3cc(=O)oc4ccccc34)cc2)n1 | 95% | 500 µg/mL (≈ 1230 µM) | 50 µg/mL (≈ 123 µM) | 25 µg/mL (≈ 61.5 µM) | 50 µg/mL (≈ 123 µM) | 50 µg/mL (≈ 123 µM) | 100 µg/mL (≈ 246 µM) | 100 µg/mL (≈ 246 µM) | 50 µg/mL (≈ 123 µM) | 100 µg/mL (≈ 246 µM) | 100 µg/mL (≈ 246 µM) | 100 µg/mL (≈ 246 µM) | 100 µg/mL (≈ 246 µM) | 100 µg/mL (≈ 246 µM) | 17 mm | 21 mm | 19 mm | 17 mm | 14 mm | 15 mm | diameter of the inhibition zone (DIZ) (Salmonella typhi [20]): 17 mm; diameter of the inhibition zone (DIZ) (Klebsiella pneumoniae [21]): 15 mm; diameter of the inhibition zone (DIZ) (Pseudomonas aeruginosa [22]): 12 mm; diameter of the inhibition zone (DIZ) (Escherichia coli [23]): 14 mm; diameter of the inhibition zone (DIZ) (Bacillus cereus [24]): 15 mm; diameter of the inhibition zone (DIZ) (Staphylococcus aureus [25]): 13 mm
3 | CC(=O)N1N=C(c2ccc(Nc3cc(=O)oc4ccccc34)cc2)CC1c1ccc([N+](=O)[O-])cc1 (stereo not given) | 96% | 500 µg/mL (≈ 1070 µM) | 100 µg/mL (≈ 213 µM) | 50 µg/mL (≈ 107 µM) | 100 µg/mL (≈ 213 µM) | 100 µg/mL (≈ 213 µM) | 100 µg/mL (≈ 213 µM) | 100 µg/mL (≈ 213 µM) | 100 µg/mL (≈ 213 µM) | 100 µg/mL (≈ 213 µM) | 100 µg/mL (≈ 213 µM) | 100 µg/mL (≈ 213 µM) | 100 µg/mL (≈ 213 µM) | 100 µg/mL (≈ 213 µM) | 15 mm | 17 mm | 13 mm | 14 mm | 13 mm | <10 mm | diameter of the inhibition zone (DIZ) (Salmonella typhi [20]): 17 mm; diameter of the inhibition zone (DIZ) (Klebsiella pneumoniae [21]): 13 mm; diameter of the inhibition zone (DIZ) (Pseudomonas aeruginosa [22]): 11 mm; diameter of the inhibition zone (DIZ) (Escherichia coli [23]): 14 mm; diameter of the inhibition zone (DIZ) (Bacillus cereus [24]): 11 mm; diameter of the inhibition zone (DIZ) (Staphylococcus aureus [25]): 12 mm
4 | Nc1nc(-c2ccc(Nc3cc(=O)oc4ccccc34)cc2)cc(-c2ccc(O)cc2O)n1 | 97% | 200 µg/mL (≈ 456 µM) | 25 µg/mL (≈ 57 µM) | 6.25 µg/mL (≈ 14.3 µM) | 12.5 µg/mL (≈ 28.5 µM) | 12.5 µg/mL (≈ 28.5 µM) | 12.5 µg/mL (≈ 28.5 µM) | 3.12 µg/mL (≈ 7.12 µM) | 12.5 µg/mL (≈ 28.5 µM) | 6.25 µg/mL (≈ 14.3 µM) | 12.5 µg/mL (≈ 28.5 µM) | 12.5 µg/mL (≈ 28.5 µM) | 12.5 µg/mL (≈ 28.5 µM) | 12.5 µg/mL (≈ 28.5 µM) | 21 mm | 25 mm | 25 mm | 22 mm | 23 mm | 28 mm | diameter of the inhibition zone (DIZ) (Salmonella typhi [20]): 24 mm; diameter of the inhibition zone (DIZ) (Klebsiella pneumoniae [21]): 26 mm; diameter of the inhibition zone (DIZ) (Pseudomonas aeruginosa [22]): 23 mm; diameter of the inhibition zone (DIZ) (Escherichia coli [23]): 22 mm; diameter of the inhibition zone (DIZ) (Bacillus cereus [24]): 21 mm; diameter of the inhibition zone (DIZ) (Staphylococcus aureus [25]): 21 mm
5 | CC(=O)N1N=C(c2ccc(Nc3cc(=O)oc4ccccc34)cc2)CC1c1ccc(Cl)cc1Cl (stereo not given) | 96% | 500 µg/mL (≈ 1020 µM) | 100 µg/mL (≈ 203 µM) | 100 µg/mL (≈ 203 µM) | 50 µg/mL (≈ 102 µM) | 100 µg/mL (≈ 203 µM) | 50 µg/mL (≈ 102 µM) | 12.5 µg/mL (≈ 25.4 µM) | 50 µg/mL (≈ 102 µM) | 25 µg/mL (≈ 50.8 µM) | 25 µg/mL (≈ 50.8 µM) | 50 µg/mL (≈ 102 µM) | 12.5 µg/mL (≈ 25.4 µM) | 12.5 µg/mL (≈ 25.4 µM) | 15 mm | 16 mm | 19 mm | 17 mm | 17 mm | 22 mm | diameter of the inhibition zone (DIZ) (Salmonella typhi [20]): 17 mm; diameter of the inhibition zone (DIZ) (Klebsiella pneumoniae [21]): 19 mm; diameter of the inhibition zone (DIZ) (Pseudomonas aeruginosa [22]): 20 mm; diameter of the inhibition zone (DIZ) (Escherichia coli [23]): 18 mm; diameter of the inhibition zone (DIZ) (Bacillus cereus [24]): 21 mm; diameter of the inhibition zone (DIZ) (Staphylococcus aureus [25]): 22 mm
